# Experimental data as given in patent publication US7846957B2, “Aromatase inhibition to enhance assisted reproduction” (Ares Trading S.A., priority 2001, dated 2010).
# Legend:
# Assay type in all cases: in vivo, human
# [1] = test system: patients who either failed to ovulate or ovulated with an endometrial thickness <5 mm in response to CC; experiment: Letrozole cycles vs CC cycles in patients with inadequate response to CC (Example 2)
# Experimental: HCG 10,000 IU was given to trigger ovulation. CC was given in a dose of 50-100 mg on days 3-7 or 5-9.
# [2] = test system: infertile patients (3 with PCOS and 4 with unexplained infertility); experiment: Letrozole alone in a single dose, ovarian stimulation and cycle monitoring for IUI (Example 3)
# Experimental: The estradiol levels in 9 treatment cycles in 7 infertile patients (3 with PCOS and 4 with unexplained infertility) undergoing ovarian stimulation and cycle monitoring for IUI who received a single 20 mg dose of letrozole on day 3 of the cycle. Follicle development was monitored by transvaginal ultrasound and by serum levels of estradiol and LH.
# [3] = test system: PCOS and unexplained infertility undergoing IUI; experiment: Letrozole for Ovulation Induction: Summary (Example 5)
# Source text: Patient Group: PCOS and unexplained infertility undergoing IUI.
# Results: Pregnancy rate was higher with Letrozole VS CC in both kinds of regimen, ovulation rate was higher with Letrozole VS CC in PCOS patients (not reported for unexplained fertility), endometrial thickness was better with Letrozole.
# [4] = mean, single 20 mg dose on day 3
# [5] = mean, single 20 mg dose on day 3, listed as letrozole
# [6] = single 20 mg dose on day 3, spread in brackets
compound,measurement,setting,value
CCN(CC)CCOc1ccc(C(=C(Cl)c2ccccc2)c2ccccc2)cc1.O=C(O)CC(O)(CC(=O)O)C(=O)O [CC],"Day of hCG administration, Mean",[1]; Mean,12.6
same,"Endometrial Thickness (Cm.), Mean",[1]; Mean,0.5 Cm.
same,"Estradiol (pmol/L) on day of hCG administration, Mean",[1]; Mean,2145 pmol/L
same,"Estradiol per mature follicle (pmol/L), Mean",[1]; Mean,1278 pmol/L
same,"Follicles > 1.5 Cm on day of hCG administration, Mean",[1]; Mean,1.9
same,"LH on day of hCG administration (IU/L), Mean",[1]; Mean,16 IU/L
same,"Number of Days from last letrozole tablet to hCG day, Mean",[1]; Mean,4.4
same,"Day of hCG administration, Median",[1]; Median,12
same,"Endometrial Thickness (Cm.), Median",[1]; Median,0.4 Cm.
same,"Estradiol (pmol/L) on day of hCG administration, Median",[1]; Median,1668 pmol/L
same,"Estradiol per mature follicle (pmol/L), Median",[1]; Median,1486 pmol/L
same,"Follicles > 1.5 Cm on day of hCG administration, Median",[1]; Median,2
same,"LH on day of hCG administration (IU/L), Median",[1]; Median,8 IU/L
same,"Number of Days from last letrozole tablet to hCG day, Median",[1]; Median,4
same,"Day of hCG administration, Range",[1]; Range,11-16
same,"Endometrial Thickness (Cm.), Range",[1]; Range,0.4-0.8 Cm.
same,"Estradiol (pmol/L) on day of hCG administration, Range",[1]; Range,362 to 5210 pmol/L
same,"Estradiol per mature follicle (pmol/L), Range",[1]; Range,177 to 2404 pmol/L
same,"Follicles > 1.5 Cm on day of hCG administration, Range",[1]; Range,1-5
same,"LH on day of hCG administration (IU/L), Range",[1]; Range,3-66 IU/L
same,"Number of Days from last letrozole tablet to hCG day, Range",[1]; Range,2-7
"N#Cc1ccc(C(c2ccc(C#N)cc2)n2cncn2)cc1 [Letrozole, letrozole]",Pregnancy was achieved (patients),"[2]; 7 patients, 9 treatment cycles, single 20 mg dose",one
same,Estradiol on hCG day (pmol/L),[2]; [4],831 (359) pmol/L
same,Estradiol/mature follicle (pmol/L),[2]; [4],390 (74) pmol/L
same,Estradiol on hCG day,[2]; [5],831 pmol/L
same,Estradiol/mature follicle,[2]; [5],390 pmol/L
same,Endometrial thickness on hCG day (cm),[2]; [6],0.9 (0.11) cm
same,Follicles > 1.5 cm,[2]; [6],2.29 (1.3)
same,LH (IU/L),[2]; [6],19.1 (12.7) IU/L
same,ovulation rate,[3]; Letrozole VS CC in PCOS patients,higher
same,Pregnancy rate,[3]; Letrozole VS CC in both kinds of regimen (alone in PCOS; plus FSH in unexplained infertility),higher
same,endometrial thickness,[3]; Letrozole vs CC,better
